Experimental data from paper PMC9061999, “Application of the Adverse Outcome Pathway Concept to In Vitro Nephrotoxicity Assessment: Kidney Injury due to Receptor-Mediated Endocytosis and Lysosomal Overload as a Case Study” (Frontiers in Toxicology, 2022).
Where a name gives a salt, the structure may show the parent alone. Read-outs that look alike come from different tables or passages of the source.

Experiments:
RPTEC/TERT1 cells = format: cell-based, human
Experimental: For high content imaging, NRK-52E and RPTEC/TERT1 cells were cultivated in µ-clear half well area microtiter plates (Greiner) according to the protocol described for the cytotoxicity assay with slight modification. Briefly, NRK-52E cells were seeded at 5,000 cells in 100 µL growth medium per well and were incubated under standard growth conditions for 48 h prior to treatment. RPTEC/TERT1 cells were seeded at 15,000 cells in 100 µL growth medium per well and incubated under standard growth conditions for 7–8 days, until cells reached confluence and started to differentiate. This was indicated by the formation of three-dimensional structures referred to as domes which were identified by regular microscopic inspection of the plates. Only differentiated cell cultures with detectable domes were assayed. Cells of both cell lines were treated with serially diluted Polymyxin B sulfate (concentration range 7.8 to 2,000 µM) for 1, 2, 4, 6, or up to 24 h. The assay was carried out on three biological replicates defined as three different non-consecutive passages of the cell culture. Each biological replicate at each treatment concentration was assayed in triplicate wells per plate.
Following treatment, cells were stained with two different combinations of fluorescent dyes: NRK-52E cells with 50 pg/μL LysoView™ 633 (Biotium) and 1 µM SYTO 16 (Thermo Scientific), respectively, for lysosomes and nuclei; RPTEC/TERT1 cells with 10 nM LysoTracker™ Red (Thermo Scientific) and 10 ng/μL Hoechst 33342 (Merck-Sigma Aldrich), respectively, for lysosomes and nuclei. For each cell line a staining solution was obtained by mixing the lysosomes and nuclei dyes in cell culture medium at the concentrations indicated above. The cells were stained by replenishing the medium for 100 µL of staining solution per well followed by incubation at 37°C and 5% CO2 for 30 min before imaging.
Images were acquired with a fully automated fluorescence confocal Opera™ QEHS system (PerkinElmer, United Kingdom) using a ×40 air UPlanApo objective (Olympus) with 0.85 numerical aperture. NRK-52E cells stained with the dyes SYTO 16 and LysoView™633 were imaged with the laser lines 488 and 635 nm, using a 488/561/635 nm primary dichroic mirror, a 510 nm long pass (LP) detection dichroic mirror, a 540/75 nm band pass (BP) emission filter for SYTO 16 and a 690/50 nm BP emission filter for LysoView™ 633. RPTEC/TERT1 cells stained with the dyes Hoechst 33342 and LysoTracker™Red were imaged with the laser lines 405 and 561 nm, using a 405/561/635 nm primary dichroic mirror, a 580 nm LP detection dichroic mirror, a 450/50 nm BP emission filter for Hoechst 33342 and a 600/40 nm BP emission filter for LysoTracker™Red. To prevent cross talk of the fluorescent signals, each dye was imaged consecutively using the combination of lasers and filters described above. The settings for laser power, exposure time and focal height were kept constant for each cell line across all the experiments. For NRK-52E cells images were acquired at 25 randomly distributed positions in a well at a single focal plane whereas for RPTEC/TERT1 cells due to the development of dome structures images were acquired at 9 random positions at three focal planes each 1 μm apart.
The images were analyzed by custom-made image analysis scripts either with the imaging analysis software Acapella (version 2.8 PerkinElmer) or Columbus (version 2.4.0 PerkinElmer). The scripts included modules for the identification and counting of the cell nuclei to extrapolate the number of cells per well, for definition of a cytoplasm surrounding the nucleus, for identification and counting of the lysosome vesicles within the cytoplasm. Additional cellular parameters included the nuclei size, intensity, the cell size (cell area), the lysosome size (lysosome area), intensity and the number of lysosomes normalized by the cell area to compensate for difference in size of the cells.

[1] = system: RPTEC/TERT1 and NRK-52E cells; assay: In vitro key event assays (LAMP-1/2, cathepsin D, cell viability) compared across both cell models; format: cell-based, human and rat; details: for Effect on cell viability / cytotoxicity (KE3): CellTiter-Glo
Experimental: Cells were plated into 96-well tissue culture plates (10,000 cells per well) and were allowed to grow for 48 h (NRK-52E) respectively 10 d (RPTEC/TERT1) prior to 24 h treatment with model stressors. Stock solution for each compound (2000 µM) was prepared in growth medium and serial dilutions (1:1) were made before each experiment. At the end of the 24 h treatment, cell viability was measured using the CellTiter-Glo® assay (Promega). CellTiter-Glo® reagents and buffer were mixed under light-protected conditions and 100 µL CellTiter-Glo® solution was added directly to each well followed by 2 min incubation on an orbital shaker and 10 min incubation at room temperature in the dark to stabilize the luminescence signal. The suspension was mixed via pipetting and 50 µL were transferred into white 96-well plates (PerkinElmer Inc.). The luminescence signal was measured on a multiplate reader (Mithras LB 940; Berthold). Each assay was performed in three independent experiments carried out in triplicates.
For immunocytochemistry experiments, cells were seeded into 8-well chamber slides (Ibidi) at a density of 140 cells per µL in 300 µL growth medium and were allowed to grow for 48 h (NRK-52E) or 10 d (RPTEC/TERT1) respectively. For treatment, stock solutions (1,000 µM) of compounds dissolved in growth medium were freshly prepared and serial dilutions were made before exposure of cells for 24 h. After treatment, cells were washed twice with 150 µL PBS and fixed with 150 µL 4% paraformaldehyde in 1 x PBS for 10 min at room temperature. After fixation, cells were washed 10 min with 150 µL PBS on an orbital shaker followed by permeabilization with 150 µL 0.2% Triton X-100 in 1 x PBS for 5 min at room temperature on an orbital shaker. The permeabilized cells were washed twice with 1 x PBS (150 µL) for 10 min at room temperature on an orbital shaker and then incubated with 150 µL 5% BSA dissolved in 1 x PBS for 1 h at room temperature to block unspecific binding sites. After blocking, 100 µL primary antibody diluted 1:100 in 1% BSA in 1 x PBS were directly pipetted onto the cells and incubated overnight at 4°C. The following antibodies were employed for NRK-52E cells: Anti-LAMP-1 monoclonal IgG1 kappa mouse antibody (Santa Cruz; sc-20011), anti-Cathepsin D mouse monoclonal IgG2 kappa antibody (Santa Cruz; sc-377124); for RPTEC/TERT1 cells: Anti-LAMP-2 monoclonal mouse antibody (Santa Cruz; sc-18822), anti-Cathepsin D mouse monoclonal IgG2b kappa (Novus Biologicals; NBP1-04278); for both cell lines anti-megalin mouse monoclonal IgG1 antibody (Santa Cruz, sc-515772).
After incubation with primary antibody, cells were washed three times for 15 min with 0.2% Tween in 1 x PBS (150 µL) on an orbital shaker. Cells were incubated for 1 h at room temperature with 100 µL CFL 488-conjugated mouse IgG kappa binding protein (1:50) (m-IgGκ BP-CFL 488; Santa Cruz, sc-516176). After incubation the cells were washed three times for 15 min with 0.2% Tween in 1 x PBS on an orbital shaker and once with 150 µL sterile water. Phalloidin-tetramethylrhodamine B isothiocyanate (TRITC) was used to stain the cytoskeleton and was diluted in 100% methanol to a stock concentration of 0.1 mg/ml and further diluted in 1 x PBS to a working concentration of 0.095 µM. After cells were washed once with 1 x PBS for 10 min at room temperature 150 µL phalloidin-TRITC working solution was added and the cells were incubated on an orbital shaker at room temperature for 60–90 min. After incubation, phalloidin-TRITC solution was aspirated, and the cells were washed once with 1 x PBS. Chamber slides were allowed to dry for 15 min at room temperature. To preserve fluorescence 50–100 µL DAPI mounting medium (Vectashield®; Vectorlab, Biozol) was added to the cells and chamber slides were stored at 4°C in the dark until image acquisition. […]

[2] = RPTEC/TERT1, 24 h, 7.8 to 2000 µM (smaller range for CdCl2 and 4-aminophenol), triplicate experiments, Figure S1
[3] = RPTEC/TERT1 and NRK-52E, 24 h treatment

Nc1ccc(O)cc1 [4-aminophenol]
Effect on lysosomal endpoints in high content screening (RPTEC/TERT1 cells): minor changes

[Cl][Cd][Cl] [CdCl2, cadmium chloride]
Effect on lysosomal endpoints in high content screening (RPTEC/TERT1 cells; [2]): most prominent effects on lysosomal endpoints | Cytotoxicity compared between RPTEC/TERT1 and NRK-52E cells ([1]; 24 h treatment, cell viability): more toxic in NRK-52E cells | Effect on LAMP-1/2 expression (KE1) ([1]; RPTEC/TERT1 and NRK-52E, 24 h, immunofluorescence image analysis): only minor effects on LAMP1/2 expression | Effect on cell viability / cytotoxicity (KE3) [1, 3]: significant cytotoxicity

N[C@@H](CSC(Cl)=C(Cl)Cl)C(=O)O [TCVC, S-(1,2,2-trichlorovinyl)-L-cysteine]
Effect on lysosomal endpoints in high content screening (RPTEC/TERT1 cells; [2]): minor changes

Nc1ccn(C[C@@H](CO)OCP(=O)(O)O)c(=O)n1 [cidofovir]
Effect on lysosomal endpoints in high content screening (RPTEC/TERT1 cells; [2]): minor changes

CNC(C)C1CCC(N)C(OC2C(N)CC(N)C(OC3OCC(C)(O)C(NC)C3O)C2O)O1 (centres unmarked) [gentamicin]
Effect on lysosomal endpoints in high content screening (RPTEC/TERT1 cells; [2]): most prominent effects on lysosomal endpoints

CC(C)OC(=O)OCOP(=O)(CO[C@H](C)Cn1cnc2c(N)ncnc21)OCOC(=O)OC(C)C [tenofovir disoproxil fumarate]
Effect on lysosomal endpoints in high content screening (RPTEC/TERT1 cells; [2]): minor changes

C[C@H](Cn1cnc2c(N)ncnc21)OCP(=O)(O)O [tenofovir]
Effect on lysosomal endpoints in high content screening (RPTEC/TERT1 cells; [2]): minor changes

CN[C@H](CC(C)C)C(=O)N[C@H]1C(=O)N[C@@H](CC(N)=O)C(=O)N[C@H]2C(=O)N[C@H]3C(=O)N[C@H](C(=O)N[C@H](C(=O)O)c4cc(O)cc(O)c4-c4cc3ccc4O)[C@H](O)c3ccc(c(Cl)c3)Oc3cc2cc(c3O[C@@H]2O[C@H](CO)[C@@H](O)[C@H](O)[C@H]2O[C@H]2C[C@](C)(N)[C@H](O)[C@H](C)O2)Oc2ccc(cc2Cl)[C@H]1O [vancomycin]
Effect on lysosomal endpoints in high content screening (RPTEC/TERT1 cells): most prominent effects on lysosomal endpoints

Polymyxin B nonapeptide
Effect on lysosomal endpoints in high content screening (RPTEC/TERT1 cells; [2]): most prominent effects on lysosomal endpoints | Rank order of effects of the 3 polymyxin derivatives across all KEs ([1]; RPTEC/TERT1 and NRK-52E, 24 h): least toxic | Effect on cell viability / cytotoxicity (KE3) [1, 3]: low
